Assay [1] concerns the target T1, 11β-HSD1 (Homo sapiens, UniProt P28845). The settings on record: for Average % inhibition at 100 nM: 0.1 µM; for IC50: read-out: IC50 Range; for Average % inhibition at 111.1 nM: 111.1 nM compound, 0.1111 µM.
Assay [2] has as its target T1, 11β-HSD1. As to the kind of experiment: biochemical. As to conditions: for IC50: IC50 Range.
The mark [3] stands for this setting: Biological Test Example 1, microsomes from CHO cells overexpressing human 11β-HSD1.
The mark [4] stands for this setting: Biological Test Example 1, 100 nM compound.
Where [5] appears, read: read-out: Average % inhibition at 100 nM, Biological Test Example 1, 100 nM.

Like-named read-outs stand apart in the source and are kept apart here.

T1 sequence (P28845 whole entry): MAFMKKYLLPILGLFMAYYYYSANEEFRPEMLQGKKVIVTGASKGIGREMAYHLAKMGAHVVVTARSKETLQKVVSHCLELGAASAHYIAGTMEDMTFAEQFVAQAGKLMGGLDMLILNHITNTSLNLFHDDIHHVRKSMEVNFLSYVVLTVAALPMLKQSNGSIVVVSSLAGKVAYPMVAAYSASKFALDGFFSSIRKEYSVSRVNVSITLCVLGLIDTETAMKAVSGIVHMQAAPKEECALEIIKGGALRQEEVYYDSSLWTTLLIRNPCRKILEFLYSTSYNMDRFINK

Broadly, the IC50 is the concentration at which inhibition is half-maximal. Turning to “3-((S)-1-(2′,4′-difluorobiphenyl-4-yl)ethyl)-6-(2-hydroxyethyl)-6-isopropyl-1,3-oxazinan-2-one [EXAMPLE 207 Isomer 1]”, at 11β-HSD1 [1], the “Average % inhibition at 100 nM” value is reported as 89.9% and the IC50 was below 100 nM.
For “3-((S)-1-(2′,4′-difluorobiphenyl-4-yl)ethyl)-6-(2-hydroxyethyl)-6-isopropyl-1,3-oxazinan-2-one [EXAMPLE 207 Isomer 2]”, in that order: 89.3% and below 100 nM.
In the case of `C[C@@H](c1ccccc1)N1CCC(C)(c2ccccc2)OC1=O` (single isomer, unassigned) [EXAMPLE 82 Isomer 2], the “Average % inhibition at 111.1 nM” value at 11β-HSD1 [1] (Biological Test Example 1) was 89.2%. In addition, the IC50 on 11β-HSD1 [1] (setting [3]) is below 100 nM.
On the same counts, the results for `C[C@H](c1ccccc1)N1CCC(C)(c2ccccc2)OC1=O` (single isomer, unassigned) [EXAMPLE 83 Isomer 2] are 45.8% and 100 to 1000 nM.
On the same counts, the results for `C=CC1(c2ccc(F)cc2)CCN([C@@H](C)c2ccccc2)C(=O)O1` (single isomer, unassigned) [EXAMPLE 113 Isomer 2] are 82.6% and below 100 nM.
Take `CC(O)C[C@]1(c2ccc(F)cc2)CCN([C@@H](C)c2ccc(-c3ccc(F)cc3F)cc2)C(=O)O1` (single isomer, unassigned) [EXAMPLE 137 Isomer 2]: the IC50 at 11β-HSD1 [1] (setting [3]) is below 100 nM.
As to `CC(O)C[C@@]1(c2cccs2)CCN([C@@H](C)c2ccc(-c3ccc(F)cc3)cc2)C(=O)O1` (single isomer, unassigned) [EXAMPLE 167 Isomer 2], at 11β-HSD1 [1] (Biological Test Example 1), the “Average % inhibition at 111.1 nM” value was found to be 77.2%. The IC50 at 11β-HSD1 [1] (setting [3]) was below 100 nM.
With `C[C@@H](c1ccc(-c2ccc(F)cc2)cc1)N1CC[C@](CC(O)CO)(c2ccccc2)OC1=O` (single isomer, unassigned) [EXAMPLE 168 Isomer 2], the “Average % inhibition at 100 nM” value on 11β-HSD1 [1] (setting [4]) came out at 95.6%. In addition, the concentration for half-maximal inhibition (IC50) at 11β-HSD1 [1] (setting [3]) was below 100 nM.
On the same counts, the results for `C[C@@H](c1ccc(-c2ccc(F)cc2F)cc1)N1CCC(CCCO)(c2cccs2)OC1=O` (single isomer, unassigned) [EXAMPLE 171 Isomer 2] are 68.6% and below 100 nM.
For `C[C@@H](c1ccc(-c2ccc(F)cc2F)cc1)N1CC[C@](CC(O)CO)(c2ccccc2)OC1=O` (single isomer, unassigned) [EXAMPLE 173 Isomer 2], in that order: 94.5% and below 100 nM.
With `CC(C)C1(CCCO)CCN([C@@H](C)c2ccc(Cl)cc2)C(=O)O1` (single isomer, unassigned) [EXAMPLE 187 Isomer 2], on 11β-HSD1 [1], the “Average % inhibition at 100 nM” value came to 46.4%. In addition, at 11β-HSD1 [1] (setting [3]), the IC50 was below 100 nM.
On to `C=CCC1(c2ccc(F)cc2)CCN([C@@H](C)c2ccc(C)cc2)C(=O)O1` (single isomer, unassigned) [EXAMPLE 189 Isomer 2], for which the “Average % inhibition at 100 nM” value at 11β-HSD1 [1] (setting [4]) was determined as 90.1%. Moreover, the IC50 on 11β-HSD1 [1] (setting [3]) is below 100 nM.
For the compound `C=CCC1(c2ccc(F)cc2)CCN([C@@H](C)c2ccc(OC)cc2)C(=O)O1` (single isomer, unassigned) [EXAMPLE 193 Isomer 2], the IC50 on 11β-HSD1 [1] (setting [3]) was below 100 nM.
For `C=CCC1(c2ccc(F)cc2)CCN([C@@H](C)c2ccc(Cl)cc2)C(=O)O1` (single isomer, unassigned) [EXAMPLE 196 Isomer 2], the “Average % inhibition at 100 nM” value at 11β-HSD1 [1] (setting [4]) is recorded as 98.9%. In addition, the IC50 at 11β-HSD1 [1] (setting [3]) is below 100 nM.
For `C[C@@H](C1CCCCC1)N1CC[C@](CC(O)CO)(c2ccc(F)cc2)OC1=O` (single isomer, unassigned) [EXAMPLE 197 Isomer 2], in that order: 82.1% and below 100 nM.
`CC(C)C1(CCCO)CCN([C@@H](C)c2ccc(Br)cc2)C(=O)O1` (single isomer, unassigned) [EXAMPLE 200 Isomer 2]: the IC50 at 11β-HSD1 [1] (setting [3]) is below 100 nM.
In the case of `CC(O)C[C@]1(c2ccc(F)cc2)CCN([C@@H](C)c2ccc(Cl)cc2)C(=O)O1` (single isomer, unassigned) [EXAMPLE 203 Isomer 2], on 11β-HSD1 [1] (setting [4]), the “Average % inhibition at 100 nM” value is 93.8%. The IC50 on 11β-HSD1 [1] (setting [3]) is below 100 nM.
A word on the inhibition: it is the change of the read-out against control, counted positive when it falls. Compound `C[C@@H](c1ccc(-c2ccc(F)cc2)cc1)N1CC[C@](CC(C)(C)C(N)=O)(c2ccccc2)OC1=O` [EXAMPLE 568, 3-((R)-3-((S)-1-(4′-fluorobiphenyl-4-yl)ethyl)-2-oxo-6-phenyl-1,3-oxazinan-6-yl)-2,2-dimethylpropanamide] had an IC50 against 11β-HSD1 [2] (setting [3]) below 100 nM. Besides, the inhibition at 0.1 µM at 11β-HSD1 [2] (setting [5]) was 97.7%.
For `C[C@@H](c1ccc(Cl)cc1F)N1CC[C@](CC(C)(C)C(N)=O)(c2ccc(F)cc2)OC1=O` [EXAMPLE 578, 3-((R)-3-((S)-1-(4-chloro-2-fluorophenyl)ethyl)-6-(4-fluorophenyl)-2-oxo-1,3-oxazinan-6-yl)-2,2-dimethylpropanamide], in that order: below 100 nM and 97.7%.
`C[C@@H](c1ccc(Br)cc1F)N1CC[C@](CCCO)(c2ccc(F)cc2)OC1=O` [EXAMPLE 581, (R)-3-((S)-1-(4-bromo-2-fluorophenyl)ethyl)-6-(4-fluorophenyl)-6-(3-hydroxypropyl)-1,3-oxazinan-2-one]: the IC50 at 11β-HSD1 [2] (setting [3]) was below 100 nM. Moreover, the inhibition at 0.1 µM at 11β-HSD1 [2] (setting [5]) came out at 96.4%.
Consider `NC(=O)c1ccc(N2CCC[C@H](N3CC[C@](CCCO)(c4ccc(F)cc4)OC3=O)C2)nc1` [EXAMPLE 584, 6-((S)-3-((R)-6-(4-fluorophenyl)-6-(3-hydroxypropyl)-2-oxo-1,3-oxazinan-3-yl)piperidin-1-yl)nicotinamide], for which the inhibition at 0.1111 µM at 11β-HSD1 [2] (read-out: Average % inhibition at 111.1 nM, Biological Test Example 1, 111.1 nM) turned out to be 77%.
As to `CC(=O)N(C)CC[C@]1(c2ccccc2)CCN([C@@H](C)c2ccc(Br)cc2)C(=O)O1` [EXAMPLE 586, N-(2-((R)-3-((S)-1-(4-bromophenyl)ethyl)-2-oxo-6-phenyl-1,3-oxazinan-6-yl)ethyl)-N-methylacetamide], the IC50 on 11β-HSD1 [2] (setting [3]) is below 100 nM. In addition, on 11β-HSD1 [2] (setting [5]), the inhibition at 0.1 µM was found to be 98%.
For `Cc1nnc(CC[C@]2(c3ccccc3)CCN([C@@H](C)c3ccc(Br)cc3)C(=O)O2)o1` [EXAMPLE 595, (R)-3-((S)-1-(4-bromophenyl)ethyl)-6-(2-(5-methyl-1,3,4-oxadiazol-2-yl)ethyl)-6-phenyl-1,3-oxazinan-2-one], in that order: below 100 nM and 90.6%.
As for `Cc1nnc(CC[C@]2(c3ccccc3)CCN([C@@H](C)c3ccc(Br)cc3)C(=O)O2)s1` [EXAMPLE 601, (R)-3-((S)-1-(4-bromophenyl)ethyl)-6-(2-(5-methyl-1,3,4-thiadiazol-2-yl)ethyl)-6-phenyl-1,3-oxazinan-2-one], the IC50 against 11β-HSD1 [2] (setting [3]) is below 100 nM. Besides, on 11β-HSD1 [2] (setting [5]), the inhibition at 0.1 µM is 89.4%.
For `C[C@@H](c1ccc(Cl)cc1F)N1CC[C@](CCCNS(C)(=O)=O)(c2ccc(F)cc2)OC1=O` [EXAMPLE 602, N-(3-((R)-3-((S)-1-(4-chloro-2-fluorophenyl)ethyl)-6-(4-fluorophenyl)-2-oxo-1,3-oxazinan-6-yl)propyl)methanesulfonamide], in that order: below 100 nM and 98.6%.
On the same counts, the results for `CC(=O)NCC(C)(C)C[C@]1(c2ccc(F)cc2)CCN([C@@H](C)c2ccc(Br)cc2)C(=O)O1` [EXAMPLE 605, N-(3-((R)-3-((S)-1-(4-bromophenyl)ethyl)-6-(4-fluorophenyl)-2-oxo-1,3-oxazinan-6-yl)-2,2-dimethylpropyl)acetamide] are below 100 nM and 85.8%.
`COC(=O)NC(C)(C)C[C@]1(c2ccc(F)cc2)CCN([C@@H](C)c2ccc(Br)cc2)C(=O)O1` [EXAMPLE 606, methyl 1-((S)-3-((S)-1-(4-bromophenyl)ethyl)-6-(4-fluorophenyl)-2-oxo-1,3-oxazinan-6-yl)-2-methylpropan-2-ylcarbamate] registered an IC50 on 11β-HSD1 [2] (setting [3]) below 100 nM. Besides, the inhibition at 0.1 µM at 11β-HSD1 [2] (setting [5]) came to 96.2%.
On the same counts, the results for `C[C@@H](c1ccc(Br)cc1)N1CC[C@](CC(C)(C)CNS(C)(=O)=O)(c2ccc(F)cc2)OC1=O` [EXAMPLE 608, N-(3-((R)-3-((S)-1-(4-bromophenyl)ethyl)-6-(4-fluorophenyl)-2-oxo-1,3-oxazinan-6-yl)-2,2-dimethylpropyl)methanesulfonamide] are below 100 nM and 84.7%.
With `CCOC(=O)NCC[C@]1(c2ccc(F)cc2)CCN([C@@H](C)c2ccc(Br)cc2)C(=O)O1` [EXAMPLE 620, ethyl 2-((R)-3-((S)-1-(4-bromophenyl)ethyl)-6-(4-fluorophenyl)-2-oxo-1,3-oxazinan-6-yl)ethylcarbamate], on 11β-HSD1 [2] (setting [3]), the IC50 is below 100 nM. Besides, the inhibition at 0.1 µM at 11β-HSD1 [2] (setting [5]) amounted to 68.7%.
As for `C[C@@H](c1ccc(Br)cc1)N1CC[C@](CC(C)(C)N)(c2ccc(F)cc2)OC1=O` [EXAMPLE 621, (S)-6-(2-amino-2-methylpropyl)-3-((S)-1-(4-bromophenyl)ethyl)-6-(4-fluorophenyl)-1,3-oxazinan-2-one], at 11β-HSD1 [2] (setting [3]), the IC50 is below 100 nM. Also, the inhibition at 0.1 µM at 11β-HSD1 [2] (setting [5]) was found to be 78.3%.
For `CC(=O)NC(C)(C)C[C@]1(c2ccc(F)cc2)CCN([C@@H](C)c2ccc(Br)cc2)C(=O)O1` [EXAMPLE 626, N-(1-((S)-3-((S)-1-(4-bromophenyl)ethyl)-6-(4-fluorophenyl)-2-oxo-1,3-oxazinan-6-yl)-2-methylpropan-2-yl)acetamide], in that order: below 100 nM and 94.8%.
Turning to `C[C@@H](c1ccc(Br)cc1)N1CC[C@](CC(C)(C)NC(=O)C(C)(C)C)(c2ccccc2)OC1=O` [EXAMPLE 693, N-(1-((S)-3-((S)-1-(4-bromophenyl)ethyl)-2-oxo-6-phenyl-1,3-oxazinan-6-yl)-2-methylpropan-2-yl)pivalamide], the IC50 on 11β-HSD1 [2] (microsomes from CHO cells overexpressing human 11β-HSD1) is above 100 nM. Moreover, on 11β-HSD1 [2] (read-out: Average % inhibition at 100 nM, 100 nM compound, microsomes from CHO cells overexpressing human 11β-HSD1), the inhibition at 0.1 µM came to 17.6%.

Source of the values: patent publication US8575156B2, “Cyclic inhibitors of 11β-hydroxysteroid dehydrogenase 1” (Vitae Pharmaceuticals, Inc., priority 2007, dated 2013).
